Assays:
[1] = MTT cytotoxicity assay, 1321N1 astrocytoma cells; assay type: cell-based; settings: human
Procedure: Potential cytotoxicity of 24 and its similarly potent analogs 27 and 30 was assessed in 3-(4,5-dimethylthiazol-2-yl)-2,5-diphenyl-2H-tetrazolium bromide (MTT) assays performed on human 1321N1 astrocytoma cells (Supplementary Table S3). This cell line was chosen since it is well-established for the screening of cytotoxic drugs, making it a reliable choice for assessing cytotoxicity.[46]
For the experiment, 1321N1 astrocytoma cells were seeded at a density of 1 × 10^5 cells/well in 180 µL of cell medium into transparent 96-well plates, whereby the outer wells only contained buffer (to avoid an edge effect). Cells were incubated for 24 h at 37°C, 5% CO2. Compound dilutions were prepared in DMSO. […] Subsequently, 20 µL of these compound dilutions were added to each well so that astrocytoma cells were incubated with varying concentrations of MRGPRX2 antagonists (0.01 µM–10 µM) at 37° C, 5% CO2. 5-Fluoruracil, a cytostatic drug, served as a positive control. Medium-containing DMSO in the absence of a compound served as a negative control. After 71 h, […] of MTT solution (5 mg/mL, prepared in Millipore water) was added to each well (final concentration 0.5 mg/mL) and cells were incubated again for another hour. Subsequently, the medium was removed, and cells were lyzed by adding 100 µL of DMSO per well. In order to dissolve the produced formazan dye crystals, plates were incubated for 2 min on a rotary shaker (150 rpm). Afterward, the UV absorbance at 570 nm was measured by using SoftMax® Pro5.1 Microplate Data Acquisition & Analysis Software (Molecular Devices, Sunnyvale, CA, USA). The UV absorbance at 690 nm was measured directly afterward to eliminate the background absorbance of residual medium and cell components. The values of the measured UV absorbance at 690 nm were subtracted from the values obtained by the measurement of UV absorbance at 570 nm. Three to four independent experiments were performed, each in triplicate.

mouse tracheal rings = experiment: Isometric force measurements of mouse tracheal rings on wire-myograph; settings: 100 µM, 10 min pre-treatment, C48/80 30 µg/mL
Procedure: The MRGPRX2/MRGPRB2 agonist C48/80 was previously reported to induce tracheal contractions in WT mice, a response that was absent in mice with a frameshift mutation in Mrgprb2.[53] We investigated whether this effect could be blocked by PSB-172656, the potent MRGPRX2/MRGPRB2 antagonist. Therefore, the force of tracheal contractions induced by C48/80 (30 µg/mL) in mouse tracheal rings was measured using a wire myograph, confirming the compound’s ability to […] tracheal contractions (Fig. 7c, d).
Isometric force measurements were performed as described previously.[68] In detail, tracheas of C57BL/6 mice were isolated and cut into rings in cold low-calcium physiological saline solution (PSS), containing 118 mM NaCl, 5 mM KCl, 1.2 mM MgCl2, 1.5 mM NaH2PO4, 0.16 mM CaCl2, 10 mM glucose and 24 mM Hepes (pH 7.4). Rings were mounted on a wire-myograph (Multi Myograph 620 M, Danish Myo Technology, Aarhus, Denmark) and pre-stretched to 5 mN in PSS, containing 118 mM NaCl, 5 mM KCl, 1.2 mM MgCl2, 1.5 mM NaH2PO4, 1.6 mM CaCl2, 10 mM glucose, and 24 mM Hepes (pH 7.4). After equilibration for 20 min, maximal constriction was induced by methacholine (MCh, 10 μM, A2251, Sigma-Aldrich, Germany). […] Force amplitudes were always analyzed at the strongest contraction of tracheal rings. […] Statistical significance was determined by an unpaired Student’s t-test, *P < 0.05.

MRGPRX2 = biological target: T1, MRGPRX2 (Homo sapiens, UniProt Q96LB1); experiment: TRUPATH Gαq dissociation assay, LN229 cells expressing MRGPRX2; assay type: cell-based; set-up: expressed in transfected cells; host or cells: LN229 human glioblastoma cells; plasmid pLXSN-MRGPRX2 (Addgene #213960); settings: 100 nM, preincubation
T1 sequence (Q96LB1 1-330): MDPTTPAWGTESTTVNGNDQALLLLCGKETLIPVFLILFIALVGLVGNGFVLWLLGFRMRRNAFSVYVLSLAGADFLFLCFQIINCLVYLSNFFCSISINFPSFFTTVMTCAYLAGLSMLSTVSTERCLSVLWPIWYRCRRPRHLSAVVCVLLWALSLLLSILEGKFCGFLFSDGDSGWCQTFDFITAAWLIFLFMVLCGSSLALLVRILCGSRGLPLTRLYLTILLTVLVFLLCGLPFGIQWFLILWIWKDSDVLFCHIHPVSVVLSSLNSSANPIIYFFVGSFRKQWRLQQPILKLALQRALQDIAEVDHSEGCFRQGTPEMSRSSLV
Procedure: Fig. 3 Biological characterization of PSB-172656. a Selectivity of PSB-172656 (100 nM) for MRGPRX2 over MRGPRX1, MRGPRX3, and MRGPRX4 measured in β-arrestin assays utilizing β-arrestin-CHO cells with recombinant expression of the respective receptor. MRGPRX1 was activated by BAM-22P (8.5 µM),[19] MRGPRX2 was activated by CST-14 (1 µM), MRGPRX3 was activated by PSB-20294 (10 µM), MRGPRX4 was activated by PSB-18061 (2.6 µM).[44] Data represent mean values ± SEM of 3-4 biological replicates, performed in duplicates. […] Data are means ± SEM of 3 biological replicates, in duplicates. Statistical significance was determined by one-way ANOVA (Tukey’s multiple comparison) test (ns P > 0.05). […] Data are means ± SEM of 3 biological replicates, performed in duplicates. e Shift assay to determine inhibition type of PSB-172656 versus CST-14. […] Extrapolated data were not used for analysis but only shown for a comprehensive view. f Schild plot for the effect of PSB-172656 on the concentration-response curves for CST-14. […]
To further investigate PSB-172656 signaling, direct activation of the relevant G protein subunits, Gαq and Gαi1,[32] was studied. This was assessed using G protein dissociation assays and LN229 cells stably overexpressing MRGPRX2 while transiently expressing the investigated G protein (Fig. 3c, d).[47]

inhibition of CST-14-induced Gαq dissociation (MRGPRX2): completely inhibited
Compound: CCc1c(C(C)C)[nH]c2nc3cc(F)c(F)cc3n2c1=O [Compound 24, 3-ethyl-7,8-difluoro-2-isopropylbenzo[4,5]imidazo [1,2-a] pyrimidin-4(1H)-one]
CC50 at 72 h [1]: > 10 µM
cytotoxicity at 72 h, 10000 nM ([1]; up to 10,000 nM, read-out: Cytotoxicity % effect): 41%
effect on C48/80-induced tracheal contractions (mouse tracheal rings; listed as PSB-172565): potently blocks tracheal contractions
effect on C48/80-induced tracheal contractions (mouse tracheal rings; listed as PSB-172656): effectively blocked the contractions

Source: paper PMC12010006, “Subnanomolar MAS-related G protein-coupled receptor-X2/B2 antagonists with efficacy in human mast cells and disease models” (Signal Transduction and Targeted Therapy, 2025)
